Laboratory results reported in patent publication US20090087425A1, “Combination of nitroderivatized steroid and bronchodilator for treating respiratory disease” (Topigen Pharmaceuticals Inc., priority 2007, published 2009).
Several values for one entry are separate records, joined by “and”; a condition that tells them apart may be missing. Equal values may be shown once. Entries after “also recorded” stand apart in the source; their conditions may differ. Read-outs that look alike come from different tables or passages of the source.

Tests used:
[1] = test system: bronchoconstriction induced by histamine; assay: Histamine-induced bronchoconstriction in conscious guinea-pigs, whole body plethysmography (sGaw); format: in vivo, guinea-pig; conditions: for Duration of significant reduction of AHR after treatment: TPI-1020 0.3 mg/ml, or TPI-1020 0.3 mg/ml + salbutamol 20 μg/ml
[2] = asthmatic patients, cited from earlier work
muscarinic receptors = conditions: cited from earlier work
[3] = test system: bronchoconstriction induced by methacholine; assay: Methacholine-induced bronchoconstriction in conscious guinea-pigs, whole body plethysmography (sGaw); format: in vivo, guinea-pig
Procedure: Groups of six male Dunkin-Hartley guinea-pigs, weighing 350-450 g were used throughout. Animals received food and water ad libitum and lighting was maintained in the room (22+/−2° C.) on a 12 h cycle. This work complied with the guidelines for the care and use of laboratory animals according to the Animals (Scientific Procedures) Act 1986.
Whole body plethysmography of the conscious guinea-pig was used to monitor airway function, recorded as specific airways conductance (sGaw). The method was as described by Griffiths-Johnson et al. (J. Pharmacol. Meth. 1988; 11:233-240), although a computerized data acquisition system replaced the original oscilloscope and angle resolver (Danahay et al. Clin. Exp. Allergy 1997; 28:513-522). Animals were fitted with a face mask and placed in a restrainer which was then slid into the plethysmograph chamber. The computer ran AcqKnowledge software using a Biopack data acquisition system. This system was capable of acquiring and storing data referring to the air across a pneumotachograph (Mercury FIL) as the animal breathed. The resulting change in box volume (pressure) was simultaneously measured.
Changes in air flow and box pressure were measured using UP1 and UP2 pressure transducers, respectively. The resulting waveforms could then be rapidly analysed by comparing the gradients of the flow and the box pressure waves at a point where flow tended towards zero, i.e. end tidal flow. A function of these two parameters, allowing for air pressure and the weight of the animal, gave the resulting value for specific airway conductance (sGaw). A minimum of five breaths were analysed for each animal at each time point to arrive at a mean value, which is the reported value.
In the experimental examples described herein, the reported values for sGaw measurements were taken following histamine or […] without treatment. This pre-treatment sGaw value measured after histamine or methacholine challenge, by convention, determined 100% bronchoconstriction for the animal. Following treatment with the experimental agents, including agents which are part of the subject invention, sGaw values (level of bronchoconstriction) were reported as a percentage of the pre-treatment value. Thus, a 10% post-treatment sGaw value, as compared to the 100% pre-treatment sGaw, is a 90% reduction in bronchoconstriction, or 90% reduction of airway hyperresponse (AHR). A 20% post-treatment sGaw value corresponds to an 80% reduction in bronchoconstriction or AHR. Thus, the lower the post-treatment sGaw value, the better the reduction of bronchoconstriction and AHR. For purposes of the subject invention, the more desired response is a lower sGaw value (less histamine- or methacholine-induced bronchoconstriction, and less AHR).
All drugs or vehicle were delivered as a whole body exposure chamber. […]
Tiotropium is an antimuscarinic or anticholinergic bronchodilator, different from the beta-agonist bronchodilators, such as salbutamol, described above. Baseline readings were taken on Day 1 prior to treatment (Pre-treatment) to determine 100% bronchoconstriction or AHR induced by methacholine. Recordings of sGaw were made at 0, 5 and 10 minutes after the […] (Post-treatment). The sGaw values of Day 3 are expressed as a percentage of Day 1 sGaw values following methacholine challenge (Pre-treatment), which is by definition set at 100%. Each point represents the mean+/−S.E.M. (n=6). Statistical significance was determined for p<0.05 using Student's paired t-test.
On Day 3, animals were treated with vehicle, alone, or with 1.0, 3.0, or 10.0 ug/ml of tiotropium. […] A dose of 0.1 µg/ml of tiotropium provided less than 40% reduction of AHR.

[4] = test system: recruitment of inflammatory cells (neutrophils); conditions: cited from earlier work
[5] = FIG. 1B, budesonide 0.44 mg/ml, equimolar to 0.63 mg/ml TPI-1020
[6] = FIG. 2B, budesonide 0.44 mg/ml, equimolar to 0.63 mg/ml TPI-1020
[7] = FIG. 3, salbutamol 30 μg/ml, 30 mins before histamine
[8] = FIG. 3, salbutamol 30 μg/ml, 60 mins before histamine
[9] = FIG. 3, salbutamol 30 μg/ml, 90 mins before histamine
[10] = FIG. 2D, TPI-1020 0.11 mMl (0.1 mg/ml in text)
[11] = FIG. 3, TPI-1020 0.3 mg/ml, 30 mins before histamine
[12] = FIG. 3, TPI-1020 0.3 mg/ml, 60 mins before histamine
[13] = FIG. 3, TPI-1020 0.3 mg/ml, 90 mins before histamine

In the case of `CC(=O)N[C@H](C(=O)O)C(C)(C)SN=O` (racemic) [SNAP, S-nitroso-N-acetylpenicillamine], the “% Inhibition” value ([1]; FIG. 2C, SNAP 0.15 mg/ml) is reported as 20% and 19%, the “Post-treatment (% sGaw)” value ([1]; FIG. 2C, SNAP 0.15 mg/ml) is reported as −81.2 % sGaw and the “% Inhibition” value ([1]; FIG. 2C, SNAP 0.31 mg/ml) is reported as 47%. For the same compound, the “Post-treatment (% sGaw)” value ([1]; FIG. 2C, SNAP 0.31 mg/ml) was −52.6 % sGaw, the “% Inhibition” value ([1]; FIG. 2D, SNAP 0.7 mM) was 19% and the “Post-treatment (% sGaw)” value ([1]; FIG. 2D, SNAP 0.7 mM) was −81.2 % sGaw.

In the case of `CCCC1O[C@@H]2C[C@H]3[C@@H]4CCC5=CC(=O)C=C[C@]5(C)[C@H]4[C@@H](O)C[C@]3(C)[C@]2(C(=O)CO)O1` (stereo partly drawn) [Budesonide, budesonide], the “% Inhibition” value [1, 5] is reported as 35%, the “Post-treatment (% sGaw)” value [1, 5] is reported as −65.2 % sGaw and the “% Inhibition” value [1, 6] is reported as 35%. The “Post-treatment (% sGaw)” value [1, 6] was −65.2 % sGaw, the “% Inhibition” value ([1]; FIG. 2B, budesonide 0.44 mg/ml, equimolar to 0.63 mg/ml TPI-1020, listed as budesonide) was 40% and the “% Inhibition” value ([1]; FIG. 2D, budesonide 0.11 mM) was 18%. For the same compound, the “Post-treatment (% sGaw)” value ([1]; FIG. 2D, budesonide 0.11 mM) was −81.8 % sGaw.

In the case of `COc1ccc(CC(C)NCC(O)c2ccc(O)c(NC=O)c2)cc1` (stereo not drawn) [Formoterol, formoterol], the Duration of bronchodilation ([2]; dose 6 μg) is given as 8 h, the Duration of bronchodilation ([2]; dose 12 μg) is given as 10 h and the Duration of bronchodilation ([2]; dose 24 μg) is given as 12 h.

For `CC(C)(C)NCC(O)c1ccc(O)c(CO)c1` (stereo not drawn) [Salbutamol, salbutamol], the “% Inhibition” value ([1]; FIG. 1C, salbutamol 3 μg/ml) was 12%, the “Post-treatment (% sGaw)” value ([1]; FIG. 1C, salbutamol 3 μg/ml) was −87.6 % sGaw and the “% Inhibition” value ([1]; FIG. 1C, salbutamol 3 μg/ml, listed as salbutamol) was “no significant inhibition effect”. The “% Inhibition” value ([1]; FIG. 1C, salbutamol 10 μg/ml) was 3%, the “Post-treatment (% sGaw)” value ([1]; FIG. 1C, salbutamol 10 μg/ml) was −96.7 % sGaw and the “% Inhibition” value ([1]; FIG. 1C, salbutamol 10 μg/ml, listed as salbutamol) was “no significant inhibition effect”. For the same compound, the “% Inhibition” value ([1]; FIG. 1C, salbutamol 20 μg/ml) was 20%, the “Post-treatment (% sGaw)” value ([1]; FIG. 1C, salbutamol 20 μg/ml) was −80.1 % sGaw and the “% Inhibition” value ([1]; FIG. 1C, salbutamol 30 μg/ml) was 84%. The “Post-treatment (% sGaw)” value ([1]; FIG. 1C, salbutamol 30 μg/ml) was −15.6 % sGaw, the “% Inhibition” value ([1]; FIG. 1C, salbutamol 30 μg/ml, listed as salbutamol) was 85% and the “% Inhibition” value ([1]; FIG. 2D, salbutamol 20 μg/ml) was 11%. The “Post-treatment (% sGaw)” value ([1]; FIG. 2D, salbutamol 20 μg/ml) was −89.0 % sGaw, the “% Inhibition” value ([1]; FIG. 2D, salbutamol 20 μg/ml, listed as salbutamol) was “insignificant reduction of AHR; also recorded: do not significantly reduce AHR” and the “% Inhibition” value [1, 7] was 84%. For the same compound, the “Post-treatment (% sGaw)” value [1, 7] was −15.6 % sGaw, the “% Inhibition” value [1, 8] was 47% and the “Post-treatment (% sGaw)” value [1, 8] was −52.7 % sGaw. The “% Inhibition” value [1, 9] was 9%, the “Post-treatment (% sGaw)” value [1, 9] was −91.4 % sGaw and the “Duration of significant reduction of AHR after treatment” value ([1]; FIG. 3, salbutamol 30 μg/ml) was 60 min.

In the case of `C[N+]1(C)[C@@H]2C[C@@H](OC(=O)C(O)(c3cccs3)c3cccs3)C[C@H]1[C@@H]1O[C@@H]12` [Tiotropium, tiotropium], the “Selectivity for specific muscarinic receptors” value (muscarinic receptors) is given as “does not display selectivity for specific muscarinic receptors”, the “% Inhibition” value ([3]; FIG. 5A, tiotropium 1 μg/ml) is given as 35% and the “Post-treatment (% sGaw)” value ([3]; FIG. 5A, tiotropium 1 μg/ml) is given as −65.2 % sGaw. The “% Inhibition” value ([3]; FIG. 5A, tiotropium 3 μg/ml) was 73%, the “Post-treatment (% sGaw)” value ([3]; FIG. 5A, tiotropium 3 μg/ml) was −26.7 % sGaw and the “% Inhibition” value ([3]; FIG. 5A, tiotropium 3 μg/ml, listed as tiotropium) was “about 75%”. The “% Inhibition” value ([3]; FIG. 5A, tiotropium 10 μg/ml) was about 85%, the “Post-treatment (% sGaw)” value ([3]; FIG. 5A, tiotropium 10 μg/ml) was −14.9 % sGaw and the “% Inhibition” value ([3]; FIG. 5C, tiotropium 1 μg/ml) was 35%. For the same compound, the “Post-treatment (% sGaw)” value ([3]; FIG. 5C, tiotropium 1 μg/ml) was −65.2 % sGaw.

For “budesonide 21-(4′-nitrooxymethyl)benzoate [TPI-1020]”, the “Post-treatment (% sGaw)” value ([3]; FIG. 5B, TPI-1020 0.1 mg/ml, 30 mins before methacholine) was −94.0 % sGaw, the “Post-treatment (% sGaw)” value ([3]; FIG. 5B, TPI-1020 0.1 mg/ml, 90 mins before methacholine) was −86.9 % sGaw and the “Post-treatment (% sGaw)” value ([3]; FIG. 5B, TPI-1020 0.3 mg/ml, 30 mins before methacholine) was −18.4 % sGaw. The “Post-treatment (% sGaw)” value ([3]; FIG. 5B, TPI-1020 0.3 mg/ml, 90 mins before methacholine) was −65.3 % sGaw, the “Post-treatment (% sGaw)” value ([3]; FIG. 5C, TPI-1020 0.1 mg/ml) was −86.9 % sGaw and the “% Inhibition” value ([1]; FIG. 1A, TPI-1020 0.1 mg/ml inhaled 15 min before 3 mM histamine) was 20% and 21%. For the same compound, the “% Inhibition” value ([1]; FIG. 1A, TPI-1020 0.3 mg/ml) was 48%, the “% Inhibition” value ([1]; FIG. 1A, TPI-1020 0.63 mg/ml) was 95% and the “Post-treatment (% sGaw)” value ([1]; FIG. 2A, TPI-1020 0.1 mg/ml) was −83.2 % sGaw. For the same compound, the “% Inhibition” value ([1]; FIG. 2A, TPI-1020 0.3 mg/ml) was 48% and 50%, the “Post-treatment (% sGaw)” value ([1]; FIG. 2A, TPI-1020 0.3 mg/ml) was −49.5 % sGaw and the “% Inhibition” value ([1]; FIG. 2A, TPI-1020 0.63 mg/ml) was 80% and 72%. The “Post-treatment (% sGaw)” value ([1]; FIG. 2A, TPI-1020 0.63 mg/ml) was −27.9 % sGaw, the “% Inhibition” value [1, 10] was “insignificant reduction of AHR” and the “Post-treatment (% sGaw)” value [1, 10] was −83.2 % sGaw. The “% Inhibition” value [1, 11] was 50%, the “Post-treatment (% sGaw)” value [1, 11] was −49.5 % sGaw and the “% Inhibition” value [1, 12] was 7%. For the same compound, the “Post-treatment (% sGaw)” value [1, 12] was −92.7 % sGaw, the “% Inhibition” value [1, 13] was −20% and the “Post-treatment (% sGaw)” value [1, 13] was −120.1 % sGaw. The “Duration of significant reduction of AHR after treatment” value ([1]; FIG. 3, salbutamol 30 μg/ml) was 30 min, the “% Inhibition” value ([1]; FIG. 4B, TPI-1020 0.1 mg/ml) was 17% and the “Post-treatment (% sGaw)” value ([1]; FIG. 4B, TPI-1020 0.1 mg/ml) was −83.2 % sGaw. The “% Inhibition” value ([1]; FIG. 4B, TPI-1020 0.3 mg/ml) was −20%, the “Post-treatment (% sGaw)” value ([1]; FIG. 4B, TPI-1020 0.3 mg/ml) was −120.3 % sGaw and the “Release in the lung of key mediators of inflammation” value ([4]; pre-clinical studies) was “significantly reduce release in the lung of key mediators of inflammation”. The “Recruitment of inflammatory cells (neutrophils)” value ([4]; rodent models of airway inflammation and pulmonary disease) was “significantly block the recruitment of inflammatory cells (neutrophils)”.
